Read-outs that look alike come from different tables or passages of the source.
How the values were obtained:
Huh7.5.1 cells = experiment: ATPlite cytotoxicity assay; format: cell-based
PAMPA permeability = format: in vitro ADME
[1] = In vivo pharmacokinetics and tissue distribution in mice; design: species or system male CD-1 mice; conditions: mouse, single i.p. dose 1 mg/kg
[2] = ALT level in mouse serum during pharmacokinetics study; format: in vivo; conditions: mouse model
[3] = aqueous kinetic solubility; format: physicochemical; conditions: phosphate buffer (pH 7.4)

| Molecule | PAMPA permeability (PAMPA permeability) | also measured |
| --- | --- | --- |
| Cc1oc(-c2ccc(Cl)c(Cl)c2)nc1CN1CCC(C(=O)NCCCN2C[C@H](C)C[C@H](C)C2)CC1 [7ii, N-(3-(cis-3,5-Dimethylpiperidin-1-yl)propyl)-1-((2-(3,4-dichlorophenyl)-5-methyloxazol-4-yl)methyl)piperidine-4-carboxamide] | 522 1×10^−6 cm/s | cytotoxicity in combination (ATPlite) (Huh7.5.1 cells): without significant cytotoxicity; liver concentration throughout 24 h post-administration [1]: 3.33 to 9.82 µM; hepatotoxicity indicated by ALT level [2]: without obvious hepatotoxicity |
| Cc1cccc(C)c1-c1nc(CN2CCC(C(=O)NCCCN3C[C@H](C)C[C@H](C)C3)CC2)c(C)o1 [7w, N-(3-(cis-3,5-Dimethylpiperidin-1-yl)propyl)-1-((2-(2,6-dimethylphenyl)-5-methyloxazol-4-yl)methyl)piperidine-4-carboxamide] | 253.9 1×10^−6 cm/s | – |
| Cc1ccc(-c2nc(CN3CCC(C(=O)NCCCN4C[C@H](C)C[C@H](C)C4)CC3)c(C)o2)cc1C [7x, N-(3-(cis-3,5-Dimethylpiperidin-1-yl)propyl)-1-((2-(3,4-dimethylphenyl)-5-methyloxazol-4-yl)methyl)piperidine-4-carboxamide] | 219.4 1×10^−6 cm/s | – |
| Cc1ccc(-c2nc(CN3CCC(C(=O)NCCCN4C[C@H](C)C[C@H](C)C4)CC3)c(C)o2)c(C)c1 [7y, N-(3-(cis-3,5-Dimethylpiperidin-1-yl)propyl)-1-((2-(2,4-dimethylphenyl)-5-methyloxazol-4-yl)methyl)piperidine-4-carboxamide] | 353.1 1×10^−6 cm/s | – |
| COc1ccc(-c2nc(CN3CCC(C(=O)NCCCN4C[C@H](C)C[C@H](C)C4)CC3)c(C)o2)cc1OC [7yy] | 81.9 1×10^−6 cm/s | – |
| Cc1cc(C)cc(-c2nc(CN3CCC(C(=O)NCCCN4C[C@H](C)C[C@H](C)C4)CC3)c(C)o2)c1 [7z, N-(3-(cis-3,5-Dimethylpiperidin-1-yl)propyl)-1-((2-(3,5-dimethylphenyl)-5-methyloxazol-4-yl)methyl)piperidine-4-carboxamide] | 864 1×10^−6 cm/s | – |
| CCN(CC)CCCCNC(=O)C1CCN(Cc2nc(-c3ccc(OC)c(OC)c3)oc2C)CC1 [7zz, N-(4-(Diethylamino)butyl)-1-((2-(3,4-dimethoxyphenyl)-5-methyloxazol-4-yl)methyl)piperidine-4-carboxamide] | 10.4 1×10^−6 cm/s | – |
| Cc1cc(-c2nc(CN3CCC(C(=O)NCCCN4C[C@H](C)C[C@H](C)C4)CC3)co2)ccc1F [18a, N-(3-(cis-3,5-Dimethylpiperidin-1-yl)propyl)-1-((2-(4-fluoro-3-methylphenyl)oxazol-4-yl)methyl)piperidine-4-carboxamide] | 215.4 1×10^−6 cm/s | – |
| Cc1cc(-c2nc(CN3CCC(C(=O)NCCCN4CCC(C(C)C)CC4)CC3)co2)ccc1F [18b, 1-((2-(4-Fluoro-3-methylphenyl)oxazol-4-yl)methyl)-N-(3-(4-isopropylpiperidin-1-yl)propyl)piperidine-4-carboxamide] | 276.4 1×10^−6 cm/s | – |
| N-(3-(cis-3,5-Dimethylpiperidin-1-yl)propyl)-1-((2-(2-chloro-6-methoxyphenyl)-5-methyloxazol-4-yl)methyl)piperidine-4-carboxamide [7ww] | – | PAMPA permeability (PAMPA permeability; PAMPA): 197.7 1×10^−6 cm/s; aqueous solubility [3]: >73.0 µg/mL |

Source: PMC6015499 (Journal of medicinal chemistry, 2017)
